Measured values: US20070254939A1, “Formulations Containing Amide Derivatives of Carboxylic Acid NSAIDS for Topical Administration to the Eye” (ALCON, INC., priority 2006, published 2007)

Tested on: mitochondria prepared from the livers of male Sprague Dawley rats
Assay: in vitro mitochondrial swelling assay (light scattering at 540 nm)
Format: biochemical, rat
Conditions: for swelling response of non-peroxide stressed (control) mitochondria: normal, unstressed mitochondria, test article 100 μM, time course over 17 minutes, FIG. 1
Description: To evaluate the effects of sulfite salts on carboxylic acid NSAID-induced mitochondrial swelling, the following assay was used. […] An initial low speed centrifugation (600×g for 10 minutes) was conducted to remove nuclei and cell debris. The pellet was discarded and the supernatant was centrifuged at 7,740×g for 10 minutes to obtain a crude mitochondrial pellet. […] The suspension was centrifuged at 7,740×g for 10 minutes. The mitochondrial pellet was suspended in 30 mL of ice-cold wash buffer and centrifuged at 10,100×g for 10 minutes. […] The mitochondrial suspension was placed on ice for immediate assay. An aliquot of the mitochondrial preparation was added to a 5.0 mL cuvette (1.0 cm path length) that contained 2.95 mL of iso-osmotic HEPES buffer, supplemented with sodium succinate and rotenone. An appropriate aliquote of the mitochondrial suspension was added to the cuvette and swelling was monitored by light scattering at 540 nm for a period of 17 minutes. When drug effects were examined, mitochondria were initially exposed for a period of one minute to the test article before the addition of either buffer, t-BOOH (150 μM) or sodium sulfite (300 μM).

SMILES	swelling response of non-peroxide stressed (control) mitochondria	swelling response of t-BOOH-stressed mitochondria (t-BOOH 150 μM, diclofenac 30, 100 or 300 μM, FIG. 2)	effect of sulfite salt on NSAID-induced swelling of peroxide-stressed mitochondria (t-BOOH 150 μM, sodium sulfite 300 μM with 60 μM amfenac or 60 μM bromfenac, FIG. 3)
Nc1c(CC(=O)O)cccc1C(=O)c1ccccc1 [amfenac]	do not affect swelling	–	–
Nc1c(CC(=O)O)cccc1C(=O)c1ccc(Br)cc1 [bromfenac]	do not affect swelling	–	–
O=C(O)Cc1ccccc1Nc1c(Cl)cccc1Cl [diclofenac]	do not affect swelling	promote the swelling of mitochondria	–
CC(C)Cc1ccc(C(C)C(=O)O)cc1 (stereo not drawn) [ibuprofen]	do not affect swelling	–	–
O=S([O-])[O-].[Na+].[Na+] [sodium sulfite]	–	–	mitochondrial swelling is prevented
